This is an account of results in patent US9586951B2 (FUJIFILM Corporation, priority 2013, dated 2017).

T1 sequence (Q13315 whole entry): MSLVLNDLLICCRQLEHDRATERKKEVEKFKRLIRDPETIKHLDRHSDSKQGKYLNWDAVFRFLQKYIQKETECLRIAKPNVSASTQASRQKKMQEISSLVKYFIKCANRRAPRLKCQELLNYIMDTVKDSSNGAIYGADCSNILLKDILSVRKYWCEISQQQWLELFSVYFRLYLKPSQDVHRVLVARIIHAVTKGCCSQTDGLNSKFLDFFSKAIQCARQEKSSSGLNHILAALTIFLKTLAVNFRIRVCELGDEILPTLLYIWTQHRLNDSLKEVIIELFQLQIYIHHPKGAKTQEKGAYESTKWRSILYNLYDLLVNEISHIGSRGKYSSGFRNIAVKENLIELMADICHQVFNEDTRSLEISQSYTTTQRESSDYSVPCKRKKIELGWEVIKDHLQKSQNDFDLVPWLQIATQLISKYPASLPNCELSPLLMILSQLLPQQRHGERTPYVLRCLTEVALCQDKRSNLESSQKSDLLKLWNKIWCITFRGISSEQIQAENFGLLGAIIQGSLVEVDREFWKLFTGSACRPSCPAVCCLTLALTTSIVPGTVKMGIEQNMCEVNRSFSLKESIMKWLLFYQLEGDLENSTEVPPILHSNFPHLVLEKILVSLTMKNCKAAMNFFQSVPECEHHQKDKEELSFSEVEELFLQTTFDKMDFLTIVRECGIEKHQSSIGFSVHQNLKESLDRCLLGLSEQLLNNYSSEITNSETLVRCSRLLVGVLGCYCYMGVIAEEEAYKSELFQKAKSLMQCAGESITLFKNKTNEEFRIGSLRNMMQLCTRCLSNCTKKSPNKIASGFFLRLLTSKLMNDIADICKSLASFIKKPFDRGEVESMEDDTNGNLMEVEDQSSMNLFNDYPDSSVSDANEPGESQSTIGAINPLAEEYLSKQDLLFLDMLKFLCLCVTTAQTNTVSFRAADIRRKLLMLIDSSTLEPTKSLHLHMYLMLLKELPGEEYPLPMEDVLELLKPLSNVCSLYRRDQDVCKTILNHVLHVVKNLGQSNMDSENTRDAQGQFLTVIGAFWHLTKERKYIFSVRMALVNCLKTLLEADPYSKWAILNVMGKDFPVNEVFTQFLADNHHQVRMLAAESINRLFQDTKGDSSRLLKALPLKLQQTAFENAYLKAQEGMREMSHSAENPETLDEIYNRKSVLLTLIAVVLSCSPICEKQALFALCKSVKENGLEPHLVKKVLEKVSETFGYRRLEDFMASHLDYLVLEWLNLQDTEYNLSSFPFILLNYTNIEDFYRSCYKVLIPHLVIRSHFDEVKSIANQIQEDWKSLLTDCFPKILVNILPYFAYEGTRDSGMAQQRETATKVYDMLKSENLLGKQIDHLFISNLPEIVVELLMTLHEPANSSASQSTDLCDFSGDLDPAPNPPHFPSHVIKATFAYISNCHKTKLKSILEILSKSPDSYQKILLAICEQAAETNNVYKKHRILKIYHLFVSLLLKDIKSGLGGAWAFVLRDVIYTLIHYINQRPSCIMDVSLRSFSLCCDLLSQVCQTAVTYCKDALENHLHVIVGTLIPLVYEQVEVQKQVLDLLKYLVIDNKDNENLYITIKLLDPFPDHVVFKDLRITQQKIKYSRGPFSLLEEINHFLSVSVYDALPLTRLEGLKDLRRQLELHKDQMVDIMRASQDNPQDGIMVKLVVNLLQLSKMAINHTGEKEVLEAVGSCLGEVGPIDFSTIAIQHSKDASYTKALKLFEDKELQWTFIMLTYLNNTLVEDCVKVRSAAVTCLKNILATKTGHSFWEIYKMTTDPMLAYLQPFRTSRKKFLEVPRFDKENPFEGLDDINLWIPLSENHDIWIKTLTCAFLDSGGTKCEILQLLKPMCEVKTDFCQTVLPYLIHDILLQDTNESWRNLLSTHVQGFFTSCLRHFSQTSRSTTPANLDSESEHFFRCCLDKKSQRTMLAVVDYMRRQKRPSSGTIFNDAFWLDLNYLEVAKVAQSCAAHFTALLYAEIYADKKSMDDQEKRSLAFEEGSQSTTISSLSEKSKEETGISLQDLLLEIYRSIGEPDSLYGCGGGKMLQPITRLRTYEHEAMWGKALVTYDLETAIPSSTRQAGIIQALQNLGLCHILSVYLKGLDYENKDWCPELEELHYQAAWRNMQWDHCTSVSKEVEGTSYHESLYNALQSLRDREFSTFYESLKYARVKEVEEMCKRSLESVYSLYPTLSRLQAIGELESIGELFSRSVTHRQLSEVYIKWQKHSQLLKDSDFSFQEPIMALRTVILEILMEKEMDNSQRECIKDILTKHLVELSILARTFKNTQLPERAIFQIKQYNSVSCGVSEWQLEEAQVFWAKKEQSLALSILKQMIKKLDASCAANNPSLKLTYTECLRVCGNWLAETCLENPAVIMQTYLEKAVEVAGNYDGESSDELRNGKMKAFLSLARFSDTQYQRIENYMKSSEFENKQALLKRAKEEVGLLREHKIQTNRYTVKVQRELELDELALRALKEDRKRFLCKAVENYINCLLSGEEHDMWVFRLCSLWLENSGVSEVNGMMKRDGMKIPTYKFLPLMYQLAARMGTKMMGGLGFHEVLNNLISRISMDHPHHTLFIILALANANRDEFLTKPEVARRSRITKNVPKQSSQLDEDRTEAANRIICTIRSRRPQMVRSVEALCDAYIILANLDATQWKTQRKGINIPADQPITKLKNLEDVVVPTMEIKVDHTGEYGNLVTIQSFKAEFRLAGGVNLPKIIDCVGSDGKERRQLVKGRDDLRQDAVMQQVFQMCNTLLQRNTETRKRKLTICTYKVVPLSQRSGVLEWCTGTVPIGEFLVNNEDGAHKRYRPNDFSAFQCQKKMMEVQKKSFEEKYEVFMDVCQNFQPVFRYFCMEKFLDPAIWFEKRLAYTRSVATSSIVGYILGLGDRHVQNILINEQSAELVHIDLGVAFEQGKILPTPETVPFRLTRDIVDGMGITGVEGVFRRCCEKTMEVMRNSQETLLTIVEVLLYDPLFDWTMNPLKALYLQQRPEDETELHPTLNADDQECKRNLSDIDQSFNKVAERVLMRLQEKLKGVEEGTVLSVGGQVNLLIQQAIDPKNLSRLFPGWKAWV

This assay addresses T1, ATM (Homo sapiens, UniProt Q13315).
T1 construct: detecting phosphorylation of Chk2 in a human non-small cell lung cancer cell line NCI-H460 (ATCC company); host or cells: NCI-H460 human non-small cell lung cancer cells
The assay can be described thus: ATM inhibition test (phosphorylation of Chk2 generated by ionizing radiation, AlphaScreen SureFire). It is filed as cell-based. As to conditions: phosphorylated Chk2 in NCI-H460 cells, ionizing radiation 8Gy, 1 hour after test compound treatment; read-out: ATM inhibitory activity. In a few lines:
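NCI-H460 cells treated with compound for 1 hour, then irradiated with 8Gy and incubated 1 hour at 37° C. Phospho-Chk2 measured by AlphaScreen SureFire. Inhibition ratio calculated relative to untreated irradiated and non-irradiated wells.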
For orientation: Alpha assays give light when donor and acceptor beads are brought close together.
As for `COc1cncc(C(C)Nc2ccc3c(c2)Sc2cccc(-c4cc(N5CCOCC5)cc(=O)[nH]4)c2S3)n1` (stereo not shown) [Example 1-12-78, 6-(7-((1-(6-Methoxypyrazin-2-yl)ethyl)amino)thianthren-1-yl)-4-morpholino pyridin-2 (1H)-one], the IC50 was in the range of 100 to 500 nM.

With `Cc1ccncc1CNc1ccc2c(c1)Cc1cccc(-c3cc(N4CCOCC4)cc(=O)[nH]3)c1O2` [Example 2-14-5, 6-(7-(((4-Methylpyridin-3-yl)methyl)amino)-9H-xanthen-4-yl)-4-morpholino pyridin-2(1H)-one], the IC50 was in the range of 100 to 500 nM.

On to `COc1cc(CNc2ccc3c(c2)Cc2cccc(-c4cc(N5CCOCC5)cc(=O)[nH]4)c2O3)ccn1` [Example 2-22-1, 6-(7-(((2-methoxypyridin-4-yl)methyl)amino)-9H-xanthen-4-yl)-4-morpholinopyridin-2(1H)-one], for which the IC50 was 100 to 500 nM.

Regarding `COCCN(CCOC)C[C@@H](COC)Nc1ccc2c(c1)Sc1cccc(-c3cc(N4CCOCC4)cc(=O)[nH]3)c1S2` [Example 1-46-3, (S)-6-(7-((1-(bis(2-methoxyethyl)amino)-3-methoxypropan-2-yl)amino)thianthren-1-yl)-4-morpholinopyridin-2(1H)-one], the IC50 fell in the range of 100 to 500 nM.

`CC(Nc1ccc2c(c1)Sc1cccc(-c3cc(N4CCOCC4)cc(=O)[nH]3)c1S2)c1ncc(CN2CCCC2)cn1` (stereo not shown) [Example 1-12-94, 4-Morpholino-6-(7-((1-(5-(pyrrolidin-1-ylmethyl)pyrimidin-2-yl)ethyl)amino)thianthren-1-yl)pyridin-2 (1H)-one]: the IC50 lay in the range of 100 to 500 nM.

For the compound `CN(C)[C@H](CNc1ccc2c(c1)Sc1cccc(-c3cc(N4CCOCC4)cc(=O)[nH]3)c1S2)Cc1ccccc1` [Example 1-2-2, (S)-6-(7-((2-(dimethylamino)-3-phenylpropyl)amino)thianthren-1-yl)-4-morpholinopyridin-2(1H)-one], the IC50 was in the range of 100 to 500 nM.

As for `CC(Nc1ccc2c(c1)Cc1cccc(-c3cc(N4CCOCC4)cc(=O)[nH]3)c1O2)c1cc(Cl)ncn1` (stereo not shown) [Example 2-14-59, 6-(7-((1-(6-Chloropyrimidin-4-yl)ethyl)amino)-9H-xanthen-4-yl)-4-morpholino pyridin-2(1H)-one], the IC50 lay in the range of 100 to 500 nM.

Turning to `O=c1cc(N2CCOCC2)cc(-c2cccc3c2Oc2ccc(NC4CCN(c5ccccn5)CC4)cc2C3)[nH]1` [Example 2-2-27, 4-Morpholino-6-(7-((1-(pyridin-2-yl)piperidin-4-yl)amino)-9H-xanthen-4-yl) pyridin-2(1H)-one], the IC50 fell in the range of 100 to 500 nM.

Regarding `Cc1cnc(C(CCN2CCC2)Nc2ccc3c(c2)Sc2cccc(-c4cc(N5CCOCC5)cc(=O)[nH]4)c2S3)cn1` (single isomer, unassigned) [Example 1-51-11, 6-(7-((3-(Azetidin-1-yl)-1-(5-methylpyrazin-2-yl)propyl)amino)thianthren-1-yl)-4-morpholino pyridin-2(1H)-one], the IC50 is less than 100 nM.

For `O=c1cc(N2CCOCC2)cc(-c2cccc3c2Oc2ccc(NCc4cncc(-c5cccnc5)c4)cc2S3)[nH]1` [Example 4-4-10, 6-(8-(([3,3′-Bipyridin)-5-ylmethyl)amino)phenoxathiin-4-yl)-4-morpholino pyridin-2(1H)-one], the IC50 is 100 to 500 nM.

Turning to `CCNCC(Nc1ccc2c(c1)Sc1cccc(-c3cc(N4CCOCC4)cc(=O)[nH]3)c1S2)c1cccc(C)n1` (stereo not shown) [Example 1-34-1, 6-(7-((2-(ethylamino)-1-(6-methylpyridin-2-yl)ethyl)amino)thianthren-1-yl)-4-morpholinopyridin-2(1H)-one], the IC50 was 100 to 500 nM.

As for `O=c1cc(N2CCOCC2)cc(-c2cccc3c2Oc2ccc(NC4CCN(CCc5ccccn5)CC4)cc2C3)[nH]1` [Example 2-30-3, 4-Morpholino-6-(7-((1-(2-(pyridin-2-yl)ethyl)piperidin-4-yl)amino)-9H-xanthen-4-yl)pyridin-2(1H)-one], the IC50 fell in the range of 500 to 2000 nM.

On to `O=c1cc(N2CCOCC2)cc(-c2cccc3c2Oc2ccc(NCc4ccncc4Cl)cc2C3)[nH]1` [Example 2-2-25, 6-(7-(((3-Chloropyridin-4-yl)methyl)amino)-9H-xanthen-4-yl)-4-morpholino pyridin-2 (1H)-one], for which the IC50 lay within 100 to 500 nM.

For the compound `CC(Nc1ccc2c(c1)Cc1cccc(-c3cc(N4CCOCC4)cc(=O)[nH]3)c1O2)c1cccnc1` (single isomer, unassigned) [Example 2-36-1, 4-morpholino-6-(7-((1-(pyridin-3-yl)ethyl)amino)-9H-xanthen-4-yl)pyridin-2(1H)-one], the IC50 fell in the range of 500 to 2000 nM.

Take `Cc1cnc(C(COCCN(C)C)Nc2ccc3c(c2)Sc2cccc(-c4cc(N5CCOCC5)cc(=O)[nH]4)c2S3)nc1` (stereo not shown) [Example 1-12-104, 6-(7-((2-(2-(Dimethylamino)ethoxy)-1-(5-methylpyrimidin-2-yl)ethyl)amino)thianthren-1-yl)-4-morpholino pyridin-2(1H)-one]: the IC50 fell in the range of 100 to 500 nM.

For the compound `CC(C)(C)OC(=O)N1CCCC(Nc2ccc3c(c2)Cc2cccc(-c4cc(N5CCOCC5)cc(=O)[nH]4)c2O3)CC1` (stereo not shown) [Example 2-3-11, tert-Butyl 4-((5-(4-morpholino-6-oxo-1,6-dihydropyridin-2-yl)-9H-xanthen-2-yl)amino) azepane-1-carboxylate], the IC50 was 100 to 500 nM.

With `O=c1cc(N2CCOCC2)cc(-c2cccc3c2Oc2ccc(NC4CCN(Cc5ccccc5)CC4)cc2C3)[nH]1` [Example 2-28-24, 6-(7-((1-Benzylpiperidin-4-yl)amino)-9H-xanthen-4-yl)-4-morpholino pyridin-2 (1H)-one], the IC50 lay in the range of 100 to 500 nM.

Consider `CC(Nc1ccc2c(c1)Cc1cccc(-c3cc(N4CCOCC4)cc(=O)[nH]3)c1O2)c1ncccn1` (stereo not shown) [Example 2-14-78, 4-Morpholino-6-(7-((1-(pyrimidin-2-yl)ethyl)amino)-9H-xanthen-4-yl) pyridin-2(1H)-one], for which the IC50 fell in the range of 100 to 500 nM.

Turning to `O=c1cc(N2CCOCC2)cc(-c2cccc3c2Sc2ccc(NCc4ccncn4)cc2S3)[nH]1` [Example 1-12-36, 4-Morpholino-6-(7-((pyrimidin-4-ylmethyl)amino)thianthren-1-yl) pyridin-2(1H)-one], the IC50 was 100 to 500 nM.

With `Cc1ccnc(C(C)Nc2ccc3c(c2)Cc2cccc(-c4cc(N5CCOCC5)cc(=O)[nH]4)c2O3)n1` (stereo not shown) [Example 2-14-79, 6-(7-((1-(4-Methylpyrimidin-2-yl)ethyl)amino)-9H-xanthen-4-yl)-4-morpholino pyridin-2(1H)-one], the IC50 lay in the range of 100 to 500 nM.

Turning to `O=c1cc(N2CCOCC2)cc(-c2cc(F)cc3c2Oc2ccc(NCc4cccc(Cl)n4)cc2C3)[nH]1` [Example 2-48-2, 6-(7-(((6-Chloropyridin-2-yl)methyl)amino)-2-fluoro-9H-xanthen-4-yl)-4-morpholinopyridin-2(1H)-one], the IC50 was in the range of 100 to 500 nM.

Consider `CCOc1ccnc(CN2CCC(Nc3ccc4c(c3)Cc3cccc(-c5cc(N6CCOCC6)cc(=O)[nH]5)c3O4)CC2)c1` [Example 2-28-36, 6-(7-((1-((4-Ethoxypyridin-2-yl)methyl)piperidin-4-yl)amino)-9H-xanthen-4-yl)-4-morpholino pyridin-2(1H)-one], for which the IC50 was 100 to 500 nM.

Take `CCN(C)CCC(Nc1ccc2c(c1)Sc1cccc(-c3cc(N4CCOCC4)cc(=O)[nH]3)c1S2)c1cnc(C)cn1` (single isomer, unassigned) [Example 1-51-10, 6-(7-((3-(Ethyl(methyl)amino)-1-(5-methylpyrazin-2-yl)propyl)amino)thianthren-1-yl)-4-morpholino pyridin-2(1H)-one]: the IC50 is less than 100 nM.

Regarding `CNCc1ccnc(C(C)Nc2ccc3c(c2)Sc2cccc(-c4cc(N5CCOCC5)cc(=O)[nH]4)c2S3)n1` (stereo not shown) [Example 1-20-1, 6-(7-((1-(4-((methylamino)methyl)pyrimidin-2-yl)ethyl)amino)thianthren-1-yl)-4-morpholinopyridin-2(1H)-one], the IC50 was 100 to 500 nM.

Turning to `O=c1cc(N2CCOCC2)cc(-c2cccc3c2Oc2ccc(NC4CCN(Cc5ccoc5)CC4)cc2C3)[nH]1` [Example 2-28-28, 6-(7-((1-(Furan-3-ylmethyl)piperidin-4-yl)amino)-9H-xanthen-4-yl)-4-morpholino pyridin-2(1H)-one], the IC50 was 100 to 500 nM.

For the compound `Cc1cnc(CNc2ccc3c(c2)Cc2cccc(-c4cc(N5CCOCC5)cc(=O)[nH]4)c2O3)cn1` [Example 2-14-76, 6-(7-(((5-Methylpyrazin-2-yl)methyl)amino)-9H-xanthen-4-yl)-4-morpholino pyridin-2(1H)-one], the IC50 lay in the range of 100 to 500 nM.

As to `CC(CN1CCC(Nc2ccc3c(c2)Cc2cccc(-c4cc(N5CCOCC5)cc(=O)[nH]4)c2O3)CC1)c1ccccc1` (stereo not shown) [Example 2-28-37, 4-Morpholino-6-(7-((1-(2-phenylpropyl)piperidin-4-yl)amino)-9H-xanthen-4-yl) pyridin-2(1H)-one], the IC50 was in the range of 100 to 500 nM.

`O=c1cc(N2CCOCC2)cc(-c2cccc3c2Sc2ccc(NC4CCNCC4)cc2S3)[nH]1` [Example 1-24-15, 4-Morpholino-6-(7-(piperidin-4-ylamino)thianthren-1-yl)pyridin-2(1H)-one]: the IC50 was less than 100 nM.

For `CCN(CC)C(=O)CN1CCN(c2cccc(CNc3ccc4c(c3)Sc3cccc(-c5cc(N6CCOCC6)cc(=O)[nH]5)c3S4)n2)CC1` [Example 1-12-34, N,N-Diethyl-2-(4-(6-(((6-(4-morpholino-6-oxo-1,6-dihydro-pyridin-2-yl)thianthren-2-yl)amino)methyl)pyridin-2-yl)piperazin-1-yl) acetamide], the IC50 fell in the range of 500 to 2000 nM.

In the case of `O=c1cc(N2CCOCC2)cc(-c2cccc3c2Sc2ccc(NC(CO)CN4CCCCC4)cc2S3)[nH]1` (stereo not shown) [Example 1-37-4, 6-(7-((1-Hydroxy-3-(piperidin-1-yl)propan-2-yl)amino)thianthren-1-yl)-4-morpholino pyridin-2(1H)-one], the IC50 is 100 to 500 nM.

In the case of `COc1ccc(CNc2ccc3c(c2)Cc2cccc(-c4cc(N5CCOCC5)cc(=O)[nH]4)c2O3)nc1` [Example 2-2-42, 6-(7-(((5-Methoxypyridin-2-yl)methyl)amino)-9H-xanthen-4-yl)-4-morpholino pyridin-2(1H)-one], the IC50 lay within 100 to 500 nM.
